These results are taken from patent US20250198977A1, “DETECTION METHOD, DRIED ALGAE MANUFACTURING METHOD, DRIED ALGAE, AND DRIED ALGAE QUALITY MANAGEMENT METHOD” (priority 2022, published 2025).

Where only a bound is given, the exact number is not on record here.

Assay [1] has as its system L-dried matter of Prochlorococcus sp. NIES-2885. The assay is described as follows: Detection of chemical substances by delayed luminescence (DFI) of rehydrated L-dried matter. It is filed as cell-based. The procedure:
(§1) Various kinds of the L-dried matter obtained in the above-described cryo vial, and test water (water containing the chemical substances listed below at the concentrations (w/v) shown in Table 7) were prepared.
(§2) (metal mixed solution which was prepared by simulation based on formulation of a rock eluate from a core sample collected during a survey voyage of “Chikyu” by the Japan Agency for Marine-Earth Science and Technology; mainly containing lead and zinc (Yamagishi et al. Ecotoxicology (2018) 27:1303-1309)) • Copper • Zinc • Lead • Arsenic: in NIES-35, NIES-969, and NIES-2885, test water containing As(V) at 1 ppm (w/v) was also used for examination.
(§3) In a case of tests using freshwater algae, distilled water was used as the test water or control water, and in a case of tests using marine algae, filtered and sterilized seawater was used as the test water or control water.
(§4) Using a cuvette as a measurement container, 100 μL of the above-described cell suspension was dried to obtain 1 unit of the L-dried matter, and resuspended (rehydrated) in 3.5 mL of test water or control water.
(§5) After the rehydration, the L-dried matter and the test water or control water were rapidly and thoroughly mixed by pipetting to obtain a measurement sample (measurement object).
(§6) The sample was set in a weak luminescence measurement device (manufactured by Hamamatsu Photonics K.K., weak luminescence coefficient device, Type-7100). After exposure with excitation light from a light source attached to the device, delayed luminescence was measured immediately after a point of time of the rehydration (within 30 seconds), 15 minutes later, 30 minutes later, 60 minutes later, and 90 minutes later. The measurement time for each delayed luminescence was set to 10 seconds.
(§7) The sum of amounts of delayed luminescence (photon count) measured over 10 seconds was calculated and defined as the delayed fluorescence integral (DFI). In addition, for the sample after the rehydration, an absorbance at a wavelength of 600 nm with an optical path length of 1 cm was simultaneously measured. The DFI value per cell number of the L-dried matter was obtained by dividing the DFI by the value (DFI/OD600).

Assay [2] concerns L-dried matter of Raphidocelis subcapitata NIES-35. The description is as above. In kind it is cell-based. The procedure:
as §1, §2, §3, §4, §5, §6, §7

Assay [3] concerns L-dried matter of Cyanobium sp. NIES-981. The assay is described as above. It is filed as cell-based. As for the experimental part: as §1, §2, §3, §4, §5, §6, §7
Assay [4] has as its system L-dried matter of Synechococcus sp. NIES-969. The description is as above. It is filed as cell-based. The procedure:
as §1, §2, §3, §4, §5, §6, §7

Assay [5] deals with L-dried matter of NIES-981 on filter. The assay is described as follows: Detection test for DCMU using L-dried matter on a filter. It is filed as cell-based, Cyanobium sp. As to conditions: DCMU 1 μM; 5 minutes after exposure; *P<0.01, N=4. As for the experimental part: 25 to 50 mL of a culture solution of NIES-981 was passed through a filter (Whatman GF/F glass fiber filter paper (diameter: 47 mm)) set in a filtration unit, capturing the cells on the filter. After the filtration, 1 mL of a protective medium (Table 6) was immediately added dropwise onto the filter. The filter on which the cells were captured was subjected to low-temperature vacuum drying for 1 to 2 hours using a low-temperature vacuum drying device (manufactured by Forest Technology Systems Ltd., FLEXI-DRY) capable of performing L-drying. Subsequent steps were performed in the same manner as in the preparation of the L-dried sample in the vial described above, thereby obtaining L-dried matter of algae on the filter (FIG. 8).
The L-dried matter obtained on the filter was exposed to seawater or test water containing DCMU at a concentration of 1 μM, and the delayed luminescence was measured 5 minutes after the exposure.

The test system of assay [6] is L-dried matter of NIES-35. Briefly: Detectable concentration by significant difference test, 15 min exposure of L-dried matter. It is filed as cell-based, Raphidocelis subcapitata. As to conditions: exposed for 15 minutes. The source says: The concentration of HA corresponds to a 100 million-fold dilution of a commercially available stock solution.
Assay [7] deals with L-dried matter of NIES-35. The assay is described as follows: Quality evaluation of stored L-dried matter with DCMU. As to conditions: DCMU 1 μM, after 15 minutes. It is filed as cell-based, Raphidocelis subcapitata. As for the experimental part: The L-dried matter stored at 4° C. for 2 weeks was compared with the L-dried matter stored at 37° C. for 2 weeks (accelerated deterioration product). In each case, DCMU was added to the L-dried matter of NIES-35 at the same time as the rehydration, such that the final concentration was 1 μM (DCMU addition group), and the delayed luminescence after 15 minutes was measured. In addition, the delayed luminescence was measured in the control (non-addition group) in which DCMU was not added, following the same procedure.

The test system of assay [8] is same type of biocyanobacteria. Briefly: 24-hour exposure test on the same type of cyanobacteria. In kind it is cell-based. As to conditions: different bioassay method. As for the experimental part:
In a case where the half-effective concentration (EC50) was calculated, the zinc was 0.05 ppm (w/v) (FIG. 11) and the Cy metal mixed solution was 0.7% (w/v) (FIG. 12). Although it is not possible to simply compare the values because the values were obtained by different bioassay methods, the EC50 value during the zinc exposure was 0.07 ppm in a case where the 24-hour exposure test was performed on the same type of biocyanobacteria, and the EC50 value was similar to this value.

Assay [9] concerns L-dried matter of NIES-981. Briefly: Estimation of half-effective concentration (EC50) from delayed luminescence dose-response curve. It is filed as cell-based, Cyanobium sp. As to conditions: exposed simultaneously with rehydration; delayed luminescence after 15 minutes. As for the experimental part: A dose-response curve of the L-dried matter with respect to a representative metal was created, and a half-effective concentration (EC50) was estimated. For the L-dried matter of NIES-981, zinc at 0 to 1 ppm (w/v) or Cy metal mixed solution at 0 to 10% (w/v) was exposed simultaneously with rehydration. After 15 minutes, the delayed luminescence was measured, and a dose-response curve was created.

Assay [10] deals with L-dried matter of NIES-35. Briefly: Detection test for ammonia nitrogen using L-dried matter. In kind it is cell-based, Raphidocelis subcapitata. As to conditions: 60 minutes after addition; T-test, P<0.05, N=3. As for the experimental part: To the L-dried matter of NIES-35 obtained in the cryo vial, a sample containing ammonia nitrogen at a concentration shown in FIG. 10 was added, and the delayed luminescence was measured 60 minutes after the addition.

Where [11] appears, read: Pb^2+ 1 ppm, first value → later value.
[12] abbreviates: Zn^2+ 0.5 ppm, first value → later value.

For the compound `[Cu+2]` [Cu^2+, Copper], the “comparison with control group (DFI value)” value (shortened to “comparison”) in assay [1] (Cu^2+ 1 ppm) is listed as “lower”; in assay [2] (Cu^2+ 1 ppm) it was “lower”; in assay [3] (Cu^2+ 1 ppm), “higher”; in assay [4] (Cu^2+ 1 ppm), “lower”.
For `CN(C)C(=O)Nc1ccc(Cl)c(Cl)c1` [DCMU, 3-(3,4-dichlorophenyl)-1,1-dimethylurea, reference compound], in assay [5], the “amount of delayed luminescence, DCMU versus seawater” value was “significant difference”. Also, the “comparison” value is “higher” in assay [1] (DCMU 1 μM, first value → later value); “higher” in assay [2] (DCMU 1 μM); “higher” in assay [3] (DCMU 1 μM); “higher” in assay [4] (DCMU 1 μM). The entries for the “detectable concentration (significant difference test)” value in assay [6] and in [6] (conversion of 0.1 μM) were at most 0.1 µM and “approximately 0.02 ppm”, respectively. Besides, the “delayed luminescence, DCMU-added group versus non-addition group” value in [7] (L-dried matter stored at 4° C. for 2 weeks) was “a difference was observed”; in assay [7] (L-dried matter stored at 37° C. for 2 weeks), “no significant difference was observed”.
In the case of `NO` [HA, Hydroxylamine, reference compound], the “comparison” value in [1] (HA 50 μM), in assay [2] (HA 50 μM), in [3] (HA 50 μM) and in assay [4] (HA 50 μM) was “lower” each time. The “detectable concentration (significant difference test)” value in assay [6] is at most 0.0005 µM.
With `[Pb+2]` [Pb^2+, Lead], the “comparison” value is “lower” in assay [1] (setting [11]), “higher” in assay [2] (Pb^2+ 1 ppm), “higher” in assay [3] (Pb^2+ 1 ppm) and “lower” in assay [4] (setting [11]).
In the case of `[Zn+2]` [Zn^2+, Zinc], the “comparison” value in [1] (setting [12]) was “lower”; in assay [1] (Zn^2+ 1 ppm, first value → later value) it was “lower”; in assay [2] (Zn^2+ 0.5 ppm), “higher”; in assay [2] (Zn^2+ 1 ppm), “higher”; in assay [3] (Zn^2+ 0.5 ppm), “higher”; in assay [3] (Zn^2+ 1 ppm), “higher”. Besides, the “comparison” value in assay [4] (setting [12]) and in assay [4] (Zn^2+ 1 ppm) was “lower” each time. Further, the “EC50 value during the zinc exposure” value in assay [8] is 0.07 ppm. For the same compound, the “half-effective concentration (EC50)” value in [9] was 0.05 ppm (w/v).
Consider ammonia nitrogen [NH4—N], for which, in assay [10], the “concentration at which a significant difference in the amount of delayed luminescence was confirmed” value is at least 10 mg/L.
